US8247211B2, “Glycopeptide antibiotics” (American Cyanamid Company, priority 2001, dated 2012)
Converted amounts (≈) assume the structure as drawn. Where two headings read alike, the source gives them in different places. Numbered stars: 1 amine (or outer) side, 2 acyl side, 3 side chain; on linkers, the order of the positions; unused ones are H or OH. Square brackets hold non-standard residues; d marks the D form. Peptide text beside a SMILES is read from it. ξ: configuration not given here. X1 = N=C1NCC(C(O)C(N[*:1])C(=O)[*:2])N1C1OC(CO)C(O)C(O)C1O; ξEnduracididine(βξ-OH,4'ξ) = N=C1NCC(C(O)C(N)C(=O)O)N1; ξPhe(βξ-Me) = CC(c1ccccc1)C(N)C(=O)O

Assays:
[1] = Anatomic pathology (heart and kidney histopathology) in mice; type: in vivo, CD-1 mice; conditions: 20 mg/kg intravenously daily for 9 days, microscopic histopathology on day 10
Experimental: 20-day-old CD-1 mice were divided into a vehicle control group (5 mice) and a treatment group (5 mice). Samples of glycopeptide antibiotics were administered at 20 mg/kg intravenously daily for 9 days.
Samples of tissues from necropsied mice were formalin-fixed, paraffin-embedded, sectioned, stained with hematoxylin and eosin, and examined microscopically. Histopathologic findings were recorded. These findings were subjectively graded on a scale corresponding to slight, mild, moderate, marked and severe as compared to untreated controls.

[2] = tested on: Staphylococcus aureus-SMITH (GC 4543); test: Acute lethal infection in mice (ED50); type: in vivo; conditions: female CD-1 mice, intraperitoneal challenge, intravenous dose 30 min. after infection, 7 day survival ratios
Experimental: The therapeutic effects of glycopeptide antibiotics of Formula I are determined against acute lethal infections with S. aureus (strain Smith), a penicillin resistant strain of S. pneumoniae (strain GC 1894), and a vancomycin resistant strain of E. fecalis (strain GC 6189 and GC 2246). Female mice, CD-1 (Charles River Laboratories), 20 +1-2 gm, are challenged by intraperitoneal injection of sufficient bacteria (suspended in Trypticase Soy Broth or hog gastric mucin) to kill non-treated controls within 24-48 hr. Antibacterial agents, contained in 0.2 mL of saline or 5% dextrose solution, are administered intravenously 30 min. after infection. Five mice are treated at each dose level. The 7 day survival ratios from 3 separate tests are pooled for calculation of median effective dose (ED50).

Escherichia coli [3] = test: In vitro antibacterial evaluation: minimum inhibitory concentration (MIC), broth dilution method; type: cell-based; conditions: for MIC Escherichia coli (GC 4560): strain GC 4560
Method in brief: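 Susceptibility determined by NCCLS-recommended broth dilution (M7-A2), Muller-Hinton II […]. Concentration span 64-0.06 μg/mL, inoculum 5×10^5 CFU/mL. Isolates include strains resistant to methicillin, penicillin and/or vancomycin.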

Enterococcus sp. = test: as above; type: cell-based
Method in brief: (§1)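 Using Muller-Hinton II […] and an inoculum of 5×10^5 CFU/mL, antibiotic dilutions from 64 down to 0.06 μg/mL were tested following NCCLS M7-A2. The MIC is the lowest concentration inhibiting growth, including in methicillin-, penicillin- or vancomycin-resistant clinical isolates.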

Staphylococcus sp. = test: as above; type: cell-based
Method in brief: as §1

Streptococcus sp. = test: as above; type: cell-based
Method in brief: as §1

Escherichia coli [4] = test: as above; type: cell-based
[5] = broth dilution, 18 hours at 35° C.

N=C1NCC(C(O)C2NC(=O)[C@H](C(O)C3CNC(=N)N3)NC(=O)C(Cc3ccc(O)cc3)NC(=O)[C@H](Cc3ccccc3)NC(=O)CNC(=O)[C@H](CO)NC2=O)N1 (stereo in doubt) [Example 280a, Cyclo[glycylphenylalanyltyrosyl-3-(2-iminoimidazolidin-4-yl)seryl-3-(2-iminoimidazolidin-4-yl)serylseryl]]
Anatomical Pathology (Day 10), Heart [1]: 0 | Anatomical Pathology (Day 10), Kidney [1]: ++

CC(c1ccccc1)C1NC(=O)CNC(=O)C(CO)NC(=O)C(C(O)C2CNC(=N)N2C2OC(CO)C(O)C(O)C2O)NC(=O)C(C(O)C2CNC(=N)N2)NC(=O)C(Cc2ccc(O)cc2)NC1=O (stereo not drawn) [Example 55, Cyclo[glycyl-β-methylphenylalanyltyrosyl-3-(2-iminoimidazolidin-4-yl)seryl-3-(3-hexopyranosyl-2-iminoimidazolidin-4-yl)serylseryl]] (cyclo(G[ξPhe(βξ-Me)]Y[ξEnduracididine(βξ-OH,4'ξ)][X1]S); configuration not given here)
median effective dose (ED50), Staphylococcus aureus-SMITH (GC 4543) [2]: >8

CC(c1ccccc1)C1NC(=O)CNC(=O)C(CO)NC(=O)C(C(O)C2CNC(=NCc3ccccc3)N2C2OC(CO)C(O)C(O)C2O)NC(=O)C(C(O)C2CNC(=N)N2)NC(=O)C(Cc2ccc(OC3OC(CO)C(OC4OC5COC6(OC5C(O)C4O)C4CC5CC(C4)CC6C5)C(O)C3O)cc2)NC1=O (stereo not drawn) [Example 76, Cyclo[glycyl-β-methylphenylalanyl-O-[4-O-[4,6-O-(2-adamantylidene)hexopyranosyl]hexopyranosyl]tyrosyl-3-(2-iminoimidazolidin-4-yl)seryl-3-[2-(benzylimino)-3-hexopyranosylimidazolidin-4-yl]serylseryl]]
MIC Escherichia coli (GC 4560) (Escherichia coli [3]): 2 to 4 µg/mL | MIC Enterococcus faecium (GC 2243) (Enterococcus sp.; strain GC 2243): 2 to 8 µg/mL | MIC Enterococcus faecalis (GC 4553) (Enterococcus sp.; strain GC 4553): 4 to 8 µg/mL | MIC Enterococcus faecium (GC 4557) (Enterococcus sp.; strain GC 4557): 1 to 2 µg/mL | MIC Enterococcus avium (GC 4558) (Enterococcus sp.; strain GC 4558): 2 to 8 µg/mL | MIC Coagulase Negative Staphylococcus (GC 4547) (Staphylococcus sp.; [5]): 2 to 4 µg/mL | MIC Coagulase Negative Staphylococcus (GC 4548) (Staphylococcus sp.; [5]): 2 to 4 µg/mL | MIC Coagulase Negative Staphylococcus (GC 4549) (Staphylococcus sp.; [5]): 2 to 4 µg/mL | MIC Coagulase Negative Staphylococcus (GC 4551) (Staphylococcus sp.; [5]): 2 to 8 µg/mL | MIC Coagulase Negative Staphylococcus (GC 6257) (Staphylococcus sp.; [5]): 0.5 to 2 µg/mL | MIC Staphylococcus aureus (ATCC 29213) (Staphylococcus sp.; [5]): 2 to 8 µg/mL | MIC Staphylococcus aureus (GC 1131) (Staphylococcus sp.; [5]): 4 to 8 µg/mL | MIC Staphylococcus aureus (GC 3051) (Staphylococcus sp.; [5]): 2 to 8 µg/mL | MIC Staphylococcus aureus (GC 3053) (Staphylococcus sp.; [5]): 2 to 8 µg/mL | MIC Staphylococcus aureus (GC 4541) (Staphylococcus sp.; [5]): 2 to 4 µg/mL | MIC Staphylococcus aureus (GC 4542) (Staphylococcus sp.; [5]): 2 to 8 µg/mL | MIC Staphylococcus aureus (GC 4544) (Staphylococcus sp.; [5]): 4 to 8 µg/mL | MIC Staphylococcus aureus (GC 4545) (Staphylococcus sp.; [5]): 2 to 8 µg/mL | MIC Staphylococcus aureus SMITH (GC 4543) (Staphylococcus sp.; [5]): 1 to 4 µg/mL | MIC Staphylococcus haemolyticus (GC 4546) (Staphylococcus sp.; [5]): 2 to 4 µg/mL | MIC Staphylococcus aureus-SMITH (GC 4543) (Staphylococcus sp.; strain SMITH GC 4543, broth dilution, 18 hours at 35° C.): 1 to 4 µg/mL | Anatomical Pathology (Day 10), Heart [1]: 0 | Anatomical Pathology (Day 10), Kidney [1]: ++

CCCCCC(=O)OCC1OC(OC2C(CO)OC(Oc3ccc(CC4NC(=O)C(C(C)c5ccccc5)NC(=O)CNC(=O)C(CO)NC(=O)C(C(O)C5CNC(=N)N5C5OC(CO)C(O)C(O)C5O)NC(=O)C(C(O)C5CNC(=N)N5)NC4=O)cc3)C(O)C2O)C(O)C(O)C1O (stereo not drawn) [Example 95b, Cyclo[glycyl-β-methylphenylalanyl-O-[4-O-(6-O-hexanoylhexopyranosyl)hexopyranosyl]-tyrosyl-3-[2-iminoimidazolidin-4-yl)seryl-3-(3-hexopyranosyl-2-iminoimidazolidin-4-yl)-serylseryl]]
MIC Escherichia coli (GC 4559) (Escherichia coli [3]; strain GC 4559): 64 µg/mL (≈ 45.9 µM) | MIC Escherichia coli (GC 4560) (Escherichia coli [3]): <0.5 µg/mL | MIC Enterococcus faecalis (GC 2242) (Enterococcus sp.; Enterococcus faecalis (GC 2242), broth dilution, 18 hours at 35° C.): 8 µg/mL (≈ 5.74 µM) | MIC Enterococcus faecalis (ATCC 29212) (Enterococcus sp.; strain ATCC 29212): 4 µg/mL (≈ 2.87 µM) | MIC Enterococcus faecalis (GC 2242) (Enterococcus sp.; strain GC 2242): 8 µg/mL (≈ 5.74 µM) | MIC Enterococcus faecalis (GC 4552) (Enterococcus sp.; strain GC 4552): 8 µg/mL (≈ 5.74 µM) | MIC Staphylococcus aureus (ATCC 29213) (Staphylococcus sp.; [5]): 1 µg/mL (≈ 0.718 µM) | MIC Staphylococcus aureus (GC 1131) (Staphylococcus sp.; [5]): 1 µg/mL (≈ 0.718 µM) | MIC Staphylococcus aureus (GC 4535) (Staphylococcus sp.; [5]): 2 µg/mL (≈ 1.44 µM) | MIC Staphylococcus aureus SMITH (GC 4536) (Staphylococcus sp.; [5]): 1 µg/mL (≈ 0.718 µM) | MIC Coagulase Negative Staphylococcus (GC 4537) (Staphylococcus sp.; strain GC 4537): 2 µg/mL (≈ 1.44 µM) | MIC Coagulase Negative Staphylococcus (GC 4538) (Staphylococcus sp.; strain GC 4538): 1 µg/mL (≈ 0.718 µM) | MIC Coagulase Negative Staphylococcus (GC 4547) (Staphylococcus sp.; strain GC 4547): 1 µg/mL (≈ 0.718 µM) | MIC Staphylococcus aureus-SMITH (GC 4536) (Staphylococcus sp.; strain SMITH GC 4536, broth dilution, 18 hours at 35° C.): 1 µg/mL (≈ 0.718 µM) | median effective dose (ED50), Staphylococcus aureus-SMITH (GC 4543) [2]: 4 mg/kg

Cyclo[3-[[2-(2,3,4,6-tetra-O-benzoylhexopyranosyl)amino]-1,3-benzoxazol-5-yl]alanyl-3-(2-iminoimidazolidin-4-yl)seryl-3-(3-hexopyranosyl-2-iminoimidazolidin-4-yl)seryl-serylglycyl-β-methylphenylalanyl] [Example 44]
MIC Streptococcus agalactiae (GC 4564) (Streptococcus sp.): 16 µg/mL | MIC Streptococcus pneumoniae (ATCC 6301) (Streptococcus sp.): 8 µg/mL | MIC Streptococcus pneumoniae (GC 1894) (Streptococcus sp.): 16 µg/mL | MIC Streptococcus pneumoniae (GC 4565) (Streptococcus sp.): 32 µg/mL | MIC Streptococcus pyogenes (GC 4563) (Streptococcus sp.): 4 µg/mL | MIC Enterococcus avium (GC 4558) (Enterococcus sp.): 4 µg/mL | MIC Enterococcus faecalis (ATCC 29212) (Enterococcus sp.): 16 µg/mL | MIC Enterococcus faecalis (GC 2242) (Enterococcus sp.): 16 µg/mL | MIC Enterococcus faecalis (GC 2691) (Enterococcus sp.): 16 µg/mL | MIC Enterococcus faecalis (GC 3059) (Enterococcus sp.): 32 µg/mL | MIC Enterococcus faecalis (GC 4552) (Enterococcus sp.): 16 µg/mL | MIC Enterococcus faecalis (GC 4553) (Enterococcus sp.): 8 µg/mL | MIC Enterococcus faecalis (GC 4554) (Enterococcus sp.): 32 µg/mL | MIC Enterococcus faecalis (GC 6189) (Enterococcus sp.): 16 µg/mL | MIC Enterococcus faecium (GC 2243) (Enterococcus sp.): 8 µg/mL | MIC Enterococcus faecium (GC 4556) (Enterococcus sp.): 32 µg/mL | MIC Enterococcus faecium (GC 4557) (Enterococcus sp.): 8 µg/mL | MIC Coagulase Negative Staphylococcus (GC 4547) (Staphylococcus sp.): 64 µg/mL | MIC Coagulase Negative Staphylococcus (GC 4548) (Staphylococcus sp.): 8 µg/mL | MIC Coagulase Negative Staphylococcus (GC 4549) (Staphylococcus sp.): 2 µg/mL | MIC Coagulase Negative Staphylococcus (GC 4551) (Staphylococcus sp.): 16 µg/mL | MIC Coagulase Negative Staphylococcus (GC 6257) (Staphylococcus sp.): 8 µg/mL | MIC Staphylococcus aureus (ATCC 29213) (Staphylococcus sp.): 64 µg/mL | MIC Staphylococcus aureus (GC 1131) (Staphylococcus sp.): 64 µg/mL | MIC Staphylococcus aureus (GC 3051) (Staphylococcus sp.): 64 µg/mL | MIC Staphylococcus aureus (GC 3053) (Staphylococcus sp.): 32 µg/mL | MIC Staphylococcus aureus (GC 4541) (Staphylococcus sp.): 64 µg/mL | MIC Staphylococcus aureus (GC 4542) (Staphylococcus sp.): 64 µg/mL | MIC Staphylococcus aureus (GC 4544) (Staphylococcus sp.): 16 µg/mL | MIC Staphylococcus aureus (GC 4545) (Staphylococcus sp.): 16 µg/mL | MIC Staphylococcus aureus SMITH (GC 4543) (Staphylococcus sp.): 32 µg/mL | MIC Staphylococcus aureus-SMITH (GC 4543) (Staphylococcus sp.): 32 µg/mL | MIC Staphylococcus haemolyticus (GC 4546) (Staphylococcus sp.): 64 µg/mL | MIC Escherichia coli (ATCC 25922) (Escherichia coli [4]): >64 µg/mL | MIC Escherichia coli (GC 4559) (Escherichia coli [4]): >64 µg/mL | MIC Escherichia coli (GC 4560) (Escherichia coli [4]): 64 µg/mL
